Data set [1] can be described thus: FTNIR / HPLC analysis of creatine and creatinine, as is or dry basis. It is filed as physicochemical. The note with it: before digestion simulation. The procedure:
Tests on the coated Tablet prepared as described in Example 2 but with addition of 6% by tablet weight of PV/AP, creatine monohydrate powder and capsules of creatine monohydrate were carried out
These tests were done on an "AS IS or DRY BASIS.
Identification performed by FINIR, against in-house external library standards obtained from Sigma & produced by HPLC. / Quantification by FTNIR against external library standards obtained from Sigma & produced by HPLC
Bran & Luebbe InfraProver II FTNIR
Analysis performed by HPLC using Intersil ODS-2 5um (250x4.dmm) and 25 min. gradient elution with 0.1% phosphoric acid buffer in H2O and 0.1% phosphoric acid in acetonitrile. External reference standards obtained from Sigma-Aldrich.

Data set [2] can be described thus: Digestion simulation in stomacher at pH 3 for 60 minutes, total creatine and creatinine levels. It is filed as physicochemical. How it is done: 1 capsule of creatine (500 mg) and 500 mg of powder was used along with 1 tablet of 500 mg of Sustained Released Creatine.
All 3 products were placed in a stomacher at pH 3 for 60 minutes to simulate digestion. Stomacher contained 1 liter of fluid with pH being adjusted with hydrochloric acid to simulate digestion.
After 60 minutes of digestion simulation in stomacher, all 3 products were tested for: • Total Creatine levels • Total Creatinine levels

A short description of data set [3]: Stamina and strength of athletes taking creatine (free weights and hammer strength machines). It counts as in vivo, human. The note with it: two subjects. How it is done: Week 1-4: Two subjects were administered creatine monohydrate in powder form for four weeks. 2 grams were taken in the A.M. before breakfast.
No changes were made to diet and athletes were working out 4 times per week.
Stamina & Strength levels were monitored at the beginning of the study and every workout for 4 weeks.
A combination of free weights and hammer strength machines were used.
Week 5-8. Athletes discontinued creatine use. After 1 week the stomach bloat, bloating of the ankles and wrist, along with diarrhea and loose stools disappeared. About a 1% increase in strength was again noticed by the end of week 8, due to old fashioned hard work.
Week 9-12. Athletes were administered one 750 mg sustained released tablet in the a.m. and one 750 mg tablet in the afternoon. The breakdown of these tablets were 9 hours.

A short description of data set [4]: physchem. It counts as physicochemical. The following applies: simulated gastric solution, pH 4. The procedure:
TABLE 2 Change in creatine with time at pH 4
The determination was based upon formation of creatinine under buffered incubation conditions. A solution of 1% creatine in simulated gastric solution (0.5% betain/pepsin in 1M HEPES buffer pH controlled with 5M HC1 and 5N NaOH). Creatinine determination performed by PDA spectrophotometer in kinetic mode, scanning at 15 sec intervals with an integration time of 0.5 sec. Detection in 1 cm path length flow call at 37°C with test analyte flowing at 1 ml/min. Reagents obtained from Sigma-Aldrich.

[5] abbreviates: 2 grams in the A.M. before breakfast, week 1-4.

Consider `CN(CC(=O)O)C(=N)N.O` [Creatine Powder, creatine monohydrate], for which, in data set [1], the Creatine entry is listed as “Creatine 100.1%” and the Creatinine entry is “Creatinine <200ppm”. Also, the “pH of Stomacher after addition of product” value in data set [2] (500 mg elemental creatine added to stomacher at pH 3, 1 liter of fluid) is recorded as 3.5. In addition, in data set [2] (500 mg, stomacher at pH 3, 60 minutes), the “creatine converted to creatinine after 60 minutes (in words)” value is recorded as “all creatine being converted to creatinine”. The degraded at 1 h in data set [2] (acidified fluid, 500 mg elemental creatine, stomacher at pH 3, 60 minutes, read-out: Total conversion to Creatinine after 60 minutes of digestion) is 100%. Besides, in data set [3] (setting [5]), the side effects result is “Stomach bloating, bloating of the ankles and wrist, along with diarrhea and loose stools”; the stamina increase result was “did not notice any stamina increase”. The increase in strength in data set [3] (2 grams in the A.M. before breakfast, week 1-4, not attributed to creatine) is listed as about 1%. In addition, the “over all sense of tiredness” value in data set [3] (2 grams in the A.M., week two through week four) was “set in after week two and lasted through week four”.

With `CN(CC(=O)O)C(=N)N` [creatine], in data set [4], the share remaining – broadly, the share of the starting amount still present when the sample was taken – at 15 s was 94%; the amount remaining at 0.5 min is 86%; the share remaining at 45 s was 75%; the fraction remaining at 1 min is 66%. In data set [4], this compound gave a fraction remaining at 75 s of 57%, a share remaining at 0.025 h of 49%, a fraction remaining at 105 s of 38% and a fraction remaining at 2 min of 31%. In data set [4], this compound displayed a fraction remaining at 135 s of 21%, a fraction remaining at 2.5 min of 16%, an amount remaining at 165 s of 6% and an amount remaining at 0.05 h of 0.5%.

The values above are taken from patent EP1859794A1, “Sustained release supplements” (priority 2006, dated 2007).
